Experimental findings from patent US10500223B2, “Therapeutic agent for myotonic dystrophy” (Osaka University, priority 2015, dated 2019) are described below.

The subject of test [1] is HSA^LR mice. Put plainly: Muscle contraction (myotonia) by needle electromyography in MyD model mice, intraperitoneal erythromycin. Format: in vivo, mouse. Conditions: 150 mg/kg intraperitoneal once daily for 8 days, quadriceps femoris muscle, 24 h after final administration, n=3.
Experimental: The animals were divided into three groups: an erythromycin administration MyD group, a physiological saline administration MyD group and a control (wild-type mice) group (n=3 (1 male, 2 females) per group). The dose of erythromycin was 150 mg/kg, and this dose was repeatedly administered once daily for 8 days. The physiological saline administration MyD group was repeatedly given physiological saline once daily for 8 days. Nothing was administered to the control (wild-type mice) group.
Twenty-four hours after the final administration, needle electromyography was performed in the quadriceps femoris muscle in the mice under anesthesia to record myotonic discharge. […]
Test [2] concerns skeletal muscle chloride channel (Clcn1) gene splicing. The test can be described thus: Aberrant splicing of Clcn1 gene in quadriceps femoris muscle of MyD model mice, usual-dose oral erythromycin. Format: in vivo, mouse. Conditions: HSA^LR mice, 50 mg/kg gavage once daily for 21 days, vs physiological saline MyD group. As for the experimental part:
Usual-dose erythromycin was orally administered to MyD model mice, and its effects on muscle contraction in the quadriceps femoris muscle and on aberrant splicing of the skeletal muscle chloride channel (Clcn1) gene in the quadriceps femoris muscle were examined. The same MyD model mice (HSA^LR mice) and wild-type mice as in Example 3 were used. As with the case in Example 4, “Erythrocin (registered trademark) dry syrup […]% (erythromycin ethylsuccinate dry syrup)” (Abbott) was dissolved at 100 mg/mL in purified water before use. The animals were divided into three groups: an erythromycin 50 mg/kg administration MyD group, a physiological saline administration MyD group and a control (wild-type mice) group (n=3 per group). The administration was gavage administration and performed once daily for 21 consecutive days. On the day of the final administration, the quadriceps femoris muscle was dissected from each mouse. In the same manner as in Example 3, RT-PCR was performed, and the normally spliced product and the aberrantly spliced product were separately quantified. Statistical analysis was performed using t-test.

Test [3] relates to HSA^LR mice. The test can be described thus: Muscle contraction (myotonia) by needle electromyography in MyD model mice, usual-dose oral erythromycin. Format: in vivo, mouse. Particulars: 50 mg/kg gavage once daily for 21 days, quadriceps femoris muscle, n=3. As for the experimental part: Usual-dose erythromycin was orally administered to MyD model mice, and its effects on muscle contraction in the quadriceps femoris muscle and on aberrant splicing of the skeletal muscle chloride channel (Clcn1) gene in the quadriceps femoris muscle were examined. The same MyD model mice (HSA^LR mice) and wild-type mice as in Example 3 were used. As with the case in Example 4, “Erythrocin (registered trademark) dry syrup […]% (erythromycin ethylsuccinate dry syrup)” (Abbott) was dissolved at 100 mg/mL in purified water before use. The animals were divided into three groups: an erythromycin 50 mg/kg administration MyD group, a physiological saline administration MyD group and a control (wild-type mice) group (n=3 per group). The administration was gavage administration and performed once daily for 21 consecutive days. On the day of the final administration, needle electromyography was performed in the quadriceps femoris muscle in the mice under anesthesia to record myotonic discharge.

Test [4] deals with Atp2a1 gene exon 22 splicing. Put plainly: Aberrant splicing of Atp2a1 exon 22 in MyD model cells (RT-PCR). In kind it is cell-based, mouse. Conditions: C2C12-DMPK800R cells, erythromycin 25 or 50 μM, 72 hours. The method, then:
The MyD model cells were treated with erythromycin, and whether erythromycin would correct aberrant splicing in exon 22 of the Atp2a1 gene was examined. The same MyD model cells as in Example 1 (C2C12-DMP[…]) were used. The same erythromycin as in Example 1 was used. To the medium of the MyD model cells, erythromycin was added at 0, 25 or 50 μM, and after 72 hours, the total RNA was extracted using RNeasy Mini Plus Kit (trade name, Qiagen). As a control, normal C2C12 cells were cultured in a medium without erythromycin, and the total RNA was similarly extracted. For RT-PCR, SuperScript III First-Strand Synthesis System (Invitrogen) was used to prepare cDNA, and after treatment with RNase H, the segment of interest was amplified using the Atp2a1 exon 22 RT primers shown below. The RT-PCR product was electrophoresed on a 2% agarose gel and then stained using GelRed. The normal PCR product and the aberrant PCR product were separately quantified with an image analyzer (Typhoon 9410, GE). Atp2a1 exon 22 RT primers

Test [5] deals with skeletal muscle chloride channel (Clcn1) gene splicing. Put plainly: Aberrant splicing of Clcn1 gene in quadriceps femoris muscle of MyD model mice, intraperitoneal erythromycin. Conditions: HSA^LR mice, 150 mg/kg intraperitoneal once daily for 8 days, vs physiological saline MyD group. In kind it is in vivo, mouse. The source says: Erythromycin was intraperitoneally administered to MyD model mice, and its effects on muscle contraction in the quadriceps femoris muscle and on aberrant splicing of the skeletal muscle chloride channel (Clcn1) gene in the quadriceps femoris muscle were examined. The MyD model mice used were HSA^LR mice, which were kindly provided by Dr. Charles Thornton (University of Rochester) and bred in the laboratory animal facility of Osaka University. The HSA^LR mice are transgenic animals prepared by genomic integration of a hACTA gene (human gene constitutively expressed in myocytes) containing 3′-terminal CTG repeats expanded to 220, and manifest the symptoms of MyD upon the expression of mRNA with expanded CUG repeats in the myocytes (Science, 2000, 289 (5485), 1769-73). As a control, wild-type mice (FVB/NJcl mice, purchased from CLEA Japan) were used. Male and female mice aged 8 weeks were used for the experiment. The erythromycin used was “Erythrocin (registered trademark) for intravenous injection 500 mg (erythromycin lactobionate for injection)” (Abbott). This product was dissolved at 50 mg/mL in physiological saline before use. […] The normal PCR product and the aberrant PCR product were separately quantified with an image analyzer (Typhoon 9410, GE), and the percentage of the normal product in the total RT-PCR product was calculated. […]

The test system of the next test is C2C12-DMPK800R cells. Put plainly: RNA foci formation in MyD model cells (FISH). In kind it is cell-based, mouse. Particulars: erythromycin 25 or 50 μM, 72 hours, vs medium without erythromycin. As for the experimental part: MyD model cells were treated with erythromycin, and the number of RNA foci was measured by the FISH (fluorescence in situ hybridization) method.
The MyD cell model used was cells established by transfection of a DMPK gene containing 800 CTG repeats into C2C12 cells (C2C12-DMPK800R, Nucleic Acids Research, 2014, 42 (10), 6591-6602). The establishment of the C2C12-DMPK800 cells was performed in the following procedure. Both a plasmid (pLC16) with a DMPK gene sequence containing 800 CTG repeats in the 3′-untranslated region and a plasmid expressing PhiC31 integrase were transfected into the C2C12 mouse myoblast cell line using Nucleofector (trade name, Lonza), and stably expressing cells were selected using a selection medium with puromycin. Next, a plasmid expressing Cre recombinase was transfected into the stably expressing cells, and a clone in which the transcription of 800 CUG had been activated was selected using a selection medium with hygromycin. […]
The MyD model cells were cultured in DMEM medium supplemented with 10% FBS and penicillin/streptomycin under the conditions of 37° C. and 5% CO2. […] After mounting in Vectashield with DAPI (trade name, Vector Laboratories), the number of RNA foci in the nucleus was counted with a fluorescence microscope (Keyence PZ-9000).

Test [6] concerns skeletal muscle chloride channel (Clcn1) gene splicing. The test can be described thus: Aberrant splicing of Clcn1 gene in quadriceps femoris muscle of MyD model mice, high-dose oral erythromycin. Particulars: HSA^LR mice, 300, 600, 900 mg/kg gavage once daily for 5 days. Format: in vivo, mouse. As for the experimental part:
High-dose erythromycin was orally administered to MyD model mice, and its effect on aberrant splicing of the skeletal muscle chloride channel (Clcn1) gene in the quadriceps femoris muscle was examined. The same MyD model mice (HSA^LR mice) and wild-type mice as in Example 3 were used. The erythromycin used was “Erythrocin (registered trademark) dry syrup […]% (erythromycin ethylsuccinate dry syrup)” (Abbott). This product was dissolved at 100 mg/mL in purified water before use. The animals were divided into five groups: an erythromycin 300 mg/kg administration MyD group, an erythromycin 600 mg/kg administration MyD group, an erythromycin 900 mg/kg administration MyD group, a physiological saline administration MyD group and a control (wild-type mice) group (n=3 per group). The administration was gavage administration and performed once daily for five consecutive days. On the day of the final administration, the quadriceps femoris muscle was dissected from each mouse. In the same manner as in Example 3, RT-PCR was performed, the normally spliced product and the aberrantly spliced product were separately quantified, and the percentage of the normal product in the total RT-PCR product was calculated. Statistical analysis was performed using t-test.

Several values for one entry are separate records, joined by “and”; a condition that tells them apart may be missing. Equal entries are not always repeated.

For the molecule `CC[C@H]1OC(=O)[C@H](C)[C@@H](O[C@H]2C[C@@](C)(OC)[C@@H](O)[C@H](C)O2)[C@H](C)[C@@H](O[C@@H]2O[C@H](C)C[C@H](N(C)C)[C@H]2O)[C@](C)(O)C[C@@H](C)C(=O)[C@H](C)[C@@H](O)[C@]1(C)O` [erythromycin, (2R,3S,4S,5R,6R,8R,10R,11R,12S,13R)-5-(3,4,6-trideoxy-3-dimethylamino-β-D-xylo-hexopyranosyloxy)-3-(2,6-dideoxy-3-C-methyl-3-O-methyl-α-L-ribo-hexopyranosyloxy)-6,11,12-trihydroxy-2,4,6,8,10,12-hexamethyl-9-oxopentadecan-13-olide], the “severity of muscle contraction (frequency of myotonic discharge), per mouse” value in the test on HSA^LR mice [1] was 1 (myotonic discharge was observed in less than 50% of the needle insertions.) and no muscle contraction; in the test with HSA^LR mice [3], 2 (myotonic discharge was observed in 50% or more and less than 90% of the needle insertions.) and 1 (myotonic discharge was observed in less than 50% of the needle insertions.). Also, the “percentage of the normal RT-PCR product (Clcn1)” value in test [2] is reported as “significantly higher percentage of the normal RT-PCR product”. The “percentage of the normal product in the total RT-PCR product (Atp2a1 exon 22)” value in test [4] is on record as “significantly increased the percentage of the normal product to a level observed in the normal C2C12 cells”. Moreover, the “percentage of the normal product in the total RT-PCR product (Clcn1 exon 7a)” value in test [5] is given as “significantly higher percentage of the normal RT-PCR product”. For the same molecule, in the test with C2C12-DMPK800R cells, the “percentage of RNA foci positive cells” value is “significantly decreased the percentage of RNA foci positive cells in a dose dependent manner”. Further, the “correction of aberrant splicing of the Clcn1 gene (percentage of normal product)” value in test [6] is “significantly corrected the aberrant splicing of the Clcn1 gene in a dose dependent manner”.
